Assay results as given in PubChem BioAssay (NCI).
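Method: 48-hour compound exposure of cells in 96-well plates, five concentrations, linear interpolation of endpoints. GI50 marks 50% less growth. TGI is the concentration that stops growth completely.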

Assays:
Experiment in all cases: NCI tumour cell line growth inhibition, 48 h
COLO 205 colon = system: COLO 205 colon
NCI-H460 lung = system: NCI-H460 lung
OVCAR-4 ovarian = system: OVCAR-4 ovarian
NCI-H226 lung = system: NCI-H226 lung
MCF7 breast = system: MCF7 breast
BT-549 breast = system: BT-549 breast
HCT-15 colon = system: HCT-15 colon
ACHN renal = system: ACHN renal
TK-10 renal = system: TK-10 renal
SF-268 CNS = system: SF-268 CNS

## Cn1c2ccccc2c2nnc(NNCc3ccccn3)nc21
COLO 205 colon
  GI50: 476 nM
  TGI: 11.4 µM
NCI-H460 lung
  GI50: 300 nM
  TGI: 4.03 µM
OVCAR-4 ovarian
  GI50: 0.451 µM
  TGI: 13.9 µM
NCI-H226 lung
  GI50: 324 nM
  TGI: 2.63 µM
MCF7 breast
  GI50: 372 nM
  TGI: 14.5 µM
BT-549 breast
  GI50: 729 nM
  TGI: 14.9 µM
HCT-15 colon
  GI50: 328 nM
  TGI: 17.9 µM
ACHN renal
  GI50: 305 nM
  TGI: 2.37 µM
TK-10 renal
  GI50: 0.614 µM
  TGI: 14.3 µM
SF-268 CNS
  GI50: 0.294 µM
  TGI: 6.5 µM

## COc1ccc2nccc(/C=C/c3ccnc4ccc(OC)cc34)c2c1
COLO 205 colon
  GI50: > 100000 nM
  TGI: > 100 µM
NCI-H460 lung
  GI50: > 100000 nM
  TGI: > 100 µM
OVCAR-4 ovarian
  GI50: 21.7 µM
  TGI: > 52.5 µM
NCI-H226 lung
  GI50: > 100000 nM
  TGI: > 100 µM
MCF7 breast
  GI50: 2390 nM
  TGI: > 38.5 µM
BT-549 breast
  GI50: > 63400 nM
  TGI: > 100 µM
HCT-15 colon
  GI50: > 62800 nM
  TGI: > 100 µM
ACHN renal
  GI50: > 71000 nM
  TGI: > 100 µM
TK-10 renal
  GI50: > 45.2 µM
  TGI: > 63.4 µM
SF-268 CNS
  GI50: > 91.6 µM
  TGI: > 100 µM

## CCc1ncnc2cc(OCC3CO3)c(OC)cc12 (stereo not given)
COLO 205 colon
  TGI: 21.8 µM
NCI-H460 lung
  TGI: 43.8 µM
OVCAR-4 ovarian
  TGI: 24.7 µM
NCI-H226 lung
  TGI: > 100 µM
MCF7 breast
  TGI: > 42.7 µM
BT-549 breast
  TGI: 15.1 µM
HCT-15 colon
  TGI: 34.9 µM
ACHN renal
  TGI: 21.6 µM
TK-10 renal
  TGI: 69.5 µM
SF-268 CNS
  TGI: > 100 µM

## Nc1ncnc2nn(C3OC(CO)C(O)C3O)nc12 (stereo not given)
COLO 205 colon
  TGI: 15.8 µM
NCI-H460 lung
  TGI: 25.3 µM
OVCAR-4 ovarian
  TGI: > 100 µM
NCI-H226 lung
  TGI: 40.5 µM
MCF7 breast
  TGI: > 62.3 µM
BT-549 breast
  TGI: > 100 µM
HCT-15 colon
  TGI: 45.3 µM
ACHN renal
  TGI: 49.3 µM
TK-10 renal
  TGI: > 35.4 µM
SF-268 CNS
  TGI: > 100 µM

## CN(C)c1ccc(/C=N/NC(=O)c2cccc3ccccc23)c(Cl)c1
COLO 205 colon
  GI50: 2880 nM
  TGI: > 100 µM
NCI-H460 lung
  GI50: 1010 nM
  TGI: > 100 µM
OVCAR-4 ovarian
  GI50: 11.6 µM
  TGI: 74.2 µM
NCI-H226 lung
  GI50: 12300 nM
  TGI: > 100 µM
MCF7 breast
  GI50: 348 nM
  TGI: > 100 µM
BT-549 breast
  GI50: 733 nM
  TGI: > 100 µM
HCT-15 colon
  GI50: 727 nM
  TGI: > 100 µM
ACHN renal
  GI50: 5650 nM
  TGI: > 100 µM
TK-10 renal
  GI50: 5 µM
  TGI: 39.3 µM
SF-268 CNS
  GI50: 9.1 µM
  TGI: > 100 µM

## CN1CCN(c2ccc(C(=O)Nc3cccc(C#Cc4cccc5[nH]nc(N)c45)c3)cc2C(F)(F)F)CC1
COLO 205 colon
  GI50: 581 nM
  TGI: 1.2 µM
NCI-H460 lung
  GI50: 701 nM
  TGI: 1.5 µM
OVCAR-4 ovarian
  GI50: 0.962 µM
  TGI: 4.51 µM
NCI-H226 lung
  GI50: 2120 nM
  TGI: 6.94 µM
MCF7 breast
  GI50: 582 nM
  TGI: 1.14 µM
BT-549 breast
  GI50: 3360 nM
  TGI: 7.68 µM
HCT-15 colon
  GI50: 644 nM
  TGI: 1.27 µM
ACHN renal
  GI50: 801 nM
  TGI: 2.4 µM
TK-10 renal
  GI50: 1.1 µM
  TGI: 3.24 µM
SF-268 CNS
  GI50: 1.21 µM
  TGI: 4.85 µM

## C[C@]12CC[C@@H]3c4ccc(O)cc4CC[C@H]3[C@@H]1CC[C@@H]2NS(=O)(=O)c1ccc2ccccc2c1
COLO 205 colon
  GI50: 1940 nM
  TGI: 3.37 µM
NCI-H460 lung
  GI50: 2210 nM
  TGI: 4.97 µM
OVCAR-4 ovarian
  GI50: 1.98 µM
  TGI: 9.36 µM
NCI-H226 lung
  GI50: 2980 nM
  TGI: 11.5 µM
MCF7 breast
  GI50: 3360 nM
  TGI: 9.48 µM
BT-549 breast
  GI50: 2920 nM
  TGI: 8.59 µM
HCT-15 colon
  GI50: 2890 nM
  TGI: 10.5 µM
ACHN renal
  GI50: 2950 nM
  TGI: 10.5 µM
TK-10 renal
  GI50: 3.52 µM
  TGI: 12.8 µM
SF-268 CNS
  GI50: 3.68 µM
  TGI: 18.4 µM

## O=C1c2c(c3c4ccccc4[nH]c3c3[nH]c4ccccc4c23)C(=O)N1Cc1ccccc1
COLO 205 colon
  TGI: 4.66 µM
NCI-H460 lung
  TGI: 13.5 µM
OVCAR-4 ovarian
  TGI: 10.5 µM
NCI-H226 lung
  TGI: 6.1 µM
HCT-15 colon
  TGI: 5.91 µM
ACHN renal
  TGI: 11 µM
TK-10 renal
  TGI: 11.6 µM
SF-268 CNS
  TGI: 14 µM

## CN(C)CCNc1nc2ccccc2c2occc12
COLO 205 colon
  GI50: 25200 nM
  TGI: > 100 µM
NCI-H460 lung
  GI50: 31700 nM
  TGI: > 100 µM
OVCAR-4 ovarian
  GI50: 26.3 µM
  TGI: 82.2 µM
MCF7 breast
  GI50: 32400 nM
  TGI: > 100 µM
BT-549 breast
  GI50: > 100000 nM
  TGI: > 100 µM
HCT-15 colon
  GI50: 30100 nM
  TGI: > 100 µM
ACHN renal
  GI50: 28200 nM
  TGI: 85.8 µM
TK-10 renal
  GI50: 60.5 µM
  TGI: > 100 µM
SF-268 CNS
  GI50: 46.6 µM
  TGI: > 100 µM

## Cc1ccc(C)c2c(N=Nc3ccccc3[N+](=O)[O-])c(O)[nH]c12
COLO 205 colon
  TGI: > 100 µM
NCI-H460 lung
  TGI: > 100 µM
OVCAR-4 ovarian
  TGI: > 100 µM
MCF7 breast
  TGI: > 100 µM
BT-549 breast
  TGI: > 100 µM
HCT-15 colon
  TGI: > 100 µM
ACHN renal
  TGI: > 100 µM
TK-10 renal
  TGI: > 100 µM
SF-268 CNS
  TGI: > 100 µM

## Cc1cc(NS(=O)(=O)c2ccc(Nc3c4ccccc4nc4c(C(=O)Nc5ccc(S(=O)(=O)N=C(N)N)cc5)ccc(Cl)c34)cc2)no1
COLO 205 colon
  TGI: > 100 µM
NCI-H460 lung
  TGI: > 100 µM
OVCAR-4 ovarian
  TGI: 85.6 µM
NCI-H226 lung
  TGI: 97.8 µM
ACHN renal
  TGI: > 100 µM
TK-10 renal
  TGI: > 100 µM
SF-268 CNS
  TGI: 63.2 µM

## COc1cc2c(cc1OC)[C@@H]([C@H](O)c1ccccc1)NCC2
COLO 205 colon
  TGI: > 100 µM
NCI-H460 lung
  TGI: > 100 µM
OVCAR-4 ovarian
  TGI: > 100 µM
NCI-H226 lung
  TGI: > 100 µM
HCT-15 colon
  TGI: > 100 µM
ACHN renal
  TGI: > 100 µM
TK-10 renal
  TGI: > 100 µM
SF-268 CNS
  TGI: > 100 µM

## CCN(CC)CCC(=O)/C=C/c1ccc(C)cc1
COLO 205 colon
  TGI: 16.8 µM
NCI-H460 lung
  TGI: 38.3 µM
OVCAR-4 ovarian
  TGI: 32.7 µM
NCI-H226 lung
  TGI: 31.9 µM
HCT-15 colon
  TGI: 36.3 µM
ACHN renal
  TGI: 27.5 µM
TK-10 renal
  TGI: 19.3 µM
SF-268 CNS
  TGI: 30.4 µM

## Cc1cc(NS(=O)(=O)c2ccc(NC(=O)COC(=O)c3cccc4c(=O)c5ccccc5[nH]c34)cc2)no1
COLO 205 colon
  TGI: > 100 µM
NCI-H460 lung
  TGI: > 100 µM
OVCAR-4 ovarian
  TGI: > 100 µM
NCI-H226 lung
  TGI: > 100 µM
HCT-15 colon
  TGI: > 100 µM
ACHN renal
  TGI: > 100 µM
TK-10 renal
  TGI: > 100 µM
SF-268 CNS
  TGI: > 100 µM

## CC12CC(Sc3ccccc3N1)c1ccccc1O2 (stereo not given)
COLO 205 colon
  TGI: 29.9 µM
NCI-H460 lung
  TGI: 33.2 µM
OVCAR-4 ovarian
  TGI: 31.2 µM
HCT-15 colon
  TGI: 29.2 µM
ACHN renal
  TGI: 31 µM
TK-10 renal
  TGI: 51.4 µM
SF-268 CNS
  TGI: 30.4 µM

## Cc1ccc2c(CC(=O)O)cc(=O)oc2c1
COLO 205 colon
  TGI: > 100 µM
NCI-H460 lung
  TGI: > 100 µM
OVCAR-4 ovarian
  TGI: > 100 µM
NCI-H226 lung
  TGI: > 100 µM
HCT-15 colon
  TGI: > 100 µM
ACHN renal
  TGI: > 100 µM
TK-10 renal
  TGI: > 100 µM
SF-268 CNS
  TGI: > 100 µM

## COC(=O)C(=O)C(CC(=O)Nc1cccc(C(F)(F)F)c1)C(=O)OC (stereo not given)
COLO 205 colon
  TGI: > 100 µM
NCI-H460 lung
  TGI: > 100 µM
OVCAR-4 ovarian
  TGI: > 100 µM
NCI-H226 lung
  TGI: > 100 µM
HCT-15 colon
  TGI: > 100 µM
ACHN renal
  TGI: > 100 µM
TK-10 renal
  TGI: > 100 µM
SF-268 CNS
  TGI: > 100 µM

## COc1cc2ccc(CC(N)=O)cc2cc1OC
COLO 205 colon
  TGI: > 100 µM
OVCAR-4 ovarian
  TGI: > 100 µM
NCI-H226 lung
  TGI: > 100 µM
HCT-15 colon
  TGI: > 100 µM
TK-10 renal
  TGI: > 100 µM
SF-268 CNS
  TGI: > 100 µM
